The values below come from article PMC11206507, “Unraveling the Impact of Six Pentacyclic Triterpenes Regulating Metabolic Pathways on Lung Carcinoma Cells” (Pharmaceuticals, 2024).

SMILES strings stand for the structures.

This assay concerns STAT3 gene. As to the kind of experiment: RT-qPCR gene expression of STAT3. In kind it is cell-based, human. The conditions noted are these: A549, IC25, 24 h. As to the method: A549 cells were seeded into 6-well plates at a density of 1 × 10^6 cells/mL in supplemented DMEM. The cells were incubated with the triterpenes (IC25) for 24 h. Total RNA was extracted from the cells using the TRIzol reagent (Invitrogen Corporation, Carlsbad, CA, USA) according to the manufacturer’s instructions. The purity and concentration of RNA were assessed using a NanoDrop spectrophotometer (Thermo Fisher Scientific). cDNA was synthesized using the High-Capacity cDNA Reverse Transcription Kit (Applied Biosystems) according to the manufacturer’s instructions.
RT-qPCR was performed on a StepOnePlus® Real-Time PCR System (Thermo Fisher Scientific) using TaqMan Gene Expression Assays (Applied Biosystems) for PDL1 (CD274; Assay ID: Hs01125297_m1), ribonucleotide reductase (RR) M1 (Assay ID: Hs01040697_m1), and STAT3 (Assay ID: Hs01047586_g1). Each reaction consisted of 10 ng of cDNA, TaqMan Gene Expression Master Mix (Applied Biosystems), and TaqMan probes. The PCR cycling conditions were as follows: 95 °C for 10 min, followed by 40 cycles of 95 °C for 15 s and 60 °C for 60 s. The relative gene expression levels were calculated using the ΔΔCt method. GAPDH (Assay ID: Hs02758991_g1) was used as the endogenous control for normalization.
All RT-qPCR experiments were performed at least in triplicate. All data were expressed by plotting values with an average of four measurements for each treatment condition as the mean ± SD and analyzed with the software GraphPad Prism 9. Statistical analysis was performed using one-way analysis of variance (ANOVA) to compare the mean value of each treated type of cells versus the control (untreated cells). The statistical significance defined by the software for p values was **** < 0.0001, *** from 0.001 to 0.0001, ** from 0.001 to 0.01, * from 0.01 to 0.05, and non-significant (ns) ≥ 0.05.
Background: Quantitative PCR measures a nucleic acid by following its amplification.

As for `C=C(C)[C@@H]1CC[C@]2(C(=O)O)CC[C@]3(C)[C@H](CC[C@@H]4[C@@]5(C)CC[C@H](O)C(C)(C)[C@@H]5CC[C@]43C)[C@@H]12` [BeA, betulinic acid], the “STAT3 gene expression (in words)” value is reported as “superior in suppressing both genes”.
